# According to patent US20240108578A1, “COMPOSITION IN WHICH ABSORBABILITY OF POORLY ABSORBABLE DRUG IS IMPROVED” (MEDRx Co., Ltd., priority 2021, published 2024):
# Test: Dissolution of drug in ionic liquid checked under a microscope
# Format: physicochemical
# Details: 1.4 mg in 0.5 mL ionic liquid formulation, heated at 65° C. for 10 minutes
# Procedure: According to the method of Example 1, the preparations of Examples 1, 4 and 5 comprising Lixisenatide as poorly absorbable drug were prepared. Specifically, the ingredients were mixed in the amounts (molar ratios) shown in the above Table 1 to prepare each ionic liquid formulation. Lixisenatide (1.4 mg) was added into the prepared ionic liquid formulation (0.5 mL) and the mixture was heated and dissolved at 65° C. for 10 minutes to prepare each preparation.
# When Lixisenatide was mixed with an ionic liquid and checked the state under a microscope, it was determined that Lixisenatide was dissolved because the crystal of Lixisenatide disappeared by heating.
# According to the method of Example 1, the preparations of Preparation Examples 1 to 3 and 22 to 23 comprising Lixisenatide as poorly absorbable drug were prepared. Specifically, the ingredients were mixed in the amounts (molar ratios) shown in Table 2 below to prepare each ionic liquid formulation, Semaglutide (1.4 mg) was added into the prepared ionic liquid formulation (0.5 mL), and the mixture was heated and dissolved at 65° C. for 10 minutes to prepare each preparation.
# When Semaglutide was mixed with an ionic liquid and checked the state under a microscope, it was determined that Semaglutide was dissolved because the crystal of Semaglutide disappeared by heating.
row,state of the drug mixed with an ionic liquid under a microscope,Substance
1,dissolved,Lixisenatide
2,dissolved,Semaglutide
